Measurements taken from US8354436B2 (4SC Discovery GmbH, priority 2011, dated 2013).
pIC50: −log10 of the molar value. Where two headings read alike, the source gives them in different places.

Key:
Format in all cases: cell-based
Details in all cases: 48 hours
IFN-γ = IFN-γ production by PHA-stimulated human PBMC (OptEIA human IFN-g ELISA)
Summary of the method: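 Supernatant cytokine levels are read by bead-based Luminex or sandwich ELISA after 48 h culture of PHA-stimulated (2 μg/ml) human PBMC with compound. Cells are seeded at 1×10^5 per well; IC50 values derive from semilogarithmic dilution series.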

[1] = system: PBMC from healthy human donors; assay: T cell proliferation assay (PHA-stimulated human PBMC, BrdU ELISA)
Summary of the method: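 Healthy-donor PBMC isolated on Ficoll, seeded at 1×10⁵ cells/well in RPMI with 10% dialysed FCS, stimulated with 2 μg/ml PHA in presence of test compound. Proliferation read after 48 hours by BrdU-incorporation ELISA.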

IL-17FF = IL-17FF production by PHA-stimulated human PBMC (human IL-17F ELI-Pair)
Experimental: Analysis of Proliferation of and Cytokine Production by Human PBMC Stimulated with PHA
Peripheral blood mononuclear cells (PBMC) from healthy human donors were purified using Accuspin™ System-Histopaque-1077 (Sigma) according to the protocol recommended by the manufacturer. Purified PBMC were then washed twice with phosphate-buffered saline (PBS) and resuspended in RPMI1640 culture medium supplemented with 10% dialyzed heat inactivated fetal calf serum, 1.5 mM L-glutamine, 100 U penicillin/ml, and […] (all from PAN Biotech, Aidenbach, Germany). For stimulation, PBMC were seeded at 1×10^5 cells/well, activated with 2 μg/ml phytohaemagglutinin (PHA, Sigma) and incubated with the test compounds for 48 hours. IL-17A, IL-17F and INF-γ were then determined in the culture supernatant using a Luminex BioPlex system, following the manufacturer's instructions (BioRad, Munich, Germany). For screening, compounds were used at 10, 1, 0.1 and 0.01 μM. To determine the IC50, compounds were titrated semilogarithmically.
Cytokines were determined in the aforementioned culture supernatant using the following methods: IL-17AA/AF was measured using the Luminex BioPlex system (BioRad, Munich, Germany); IL-17AA using the human homodimer IL-17A ELISA Ready Set Go Kit from eBioscience (Frankfurt, Germany); IL-17FF using the human IL-17F ELI-Pair from Hölzel DiagnosticaGmBH (Köln, Germany); and IFN-γ using the OptEIA human IFN-g ELISA from BD Bioscience (Heidelberg, Germany), all following the manufacturer's instructions.

[2] = PHA-stimulated human PBMC, column C, read-out: IC50 (IFNγ)
[3] = PHA-stimulated human PBMC, column D, read-out: IC50 (Tcell proliferation)
[4] = PHA-stimulated human PBMC, column B, read-out: IC50 (IL-17FF)
[5] = human PBMC, 2 μg/ml PHA, read-out: C: IC50 (IFNγ)
[6] = human PBMC, 2 μg/ml PHA, read-out: D: IC50 (Tcell proliferation)
[7] = human PBMC, 2 μg/ml PHA, read-out: B: IC50 (IL-17FF)

Structure (SMILES)	pIC50 (IFN-γ; [2])	pIC50 (IL-17FF; [4])	pIC50 (IFN-γ; [5])	pIC50 (IL-17FF; [7])	pIC50 [1, 3]	pIC50 [1, 6]
CSC(=O)c1c(-c2c(F)cccc2Cl)noc1-c1cnn(-c2cccnc2)c1C(F)(F)F [IB-68, S-methyl 3-(2-chloro-6-fluorophenyl)-5-(1-(pyridin-3-yl)-5-(trifluoromethyl)-1H-pyrazol-4-yl)isoxazole-4-carbothioate]	> 8.00	> 8.00			7.00 to 8.00	
CCOC(=O)c1c(-c2c(Cl)cncc2Cl)noc1-c1cnn(-c2cccnc2)c1C(F)(F)F [IB-12, ethyl 3-(3,5-dichloropyridin-4-yl)-5-(1-(pyridin-3-yl)-5-(trifluoromethyl)-1H-pyrazol-4-yl)isoxazole-4-carboxylate]	6.00 to 7.00	7.00 to 8.00			6.00 to 7.00	
CC(C)OC(=O)c1c(-c2c(F)cccc2Cl)noc1-c1cnn(-c2ccccc2F)c1C(F)(F)F [Example I-43, i-Propyl 3-(2-chloro-6-fluorophenyl)-5-[1-(2-fluorophenyl)-5-(trifluoromethyl)-1H-pyrazol-4-yl]isoxazole-4-carboxylate]	7.00 to 8.00	6.00 to 7.00			7.00 to 8.00	
COC(=O)c1c(-c2c(F)cccc2Cl)noc1-c1cnn(-c2cccc(F)c2)c1 [IB-21, methyl 3-(2-chloro-6-fluorophenyl)-5-(1-(3-fluorophenyl)-1H-pyrazol-4-yl)isoxazole-4-carboxylate]	6.00 to 7.00	6.00 to 7.00			6.00 to 7.00	
CC(C)OC(=O)c1c(-c2c(F)cccc2Cl)noc1-c1cnn(-c2cccc(Cl)c2)c1C(F)(F)F [IB-31, isopropyl 3-(2-chloro-6-fluorophenyl)-5-(1-(3-chlorophenyl)-5-(trifluoromethyl)-1H-pyrazol-4-yl)isoxazole-4-carboxylate]	> 8.00	> 8.00			> 8.00	
CCOC(=O)c1c(-c2ccncc2F)noc1-c1cnn(-c2cccc(Cl)c2)c1C(F)(F)F [IB-4, ethyl 5-(1-(3-chlorophenyl)-5-(trifluoromethyl)-1H-pyrazol-4-yl)-3-(3-fluoropyridin-4-yl)isoxazole-4-carboxylate]	6.00 to 7.00	6.00 to 7.00			5.00 to 6.00	
O=C(c1c(-c2c(F)cccc2Cl)noc1-c1cnn(-c2cccc(F)c2)c1C(F)(F)F)N1CCCO1 [Example I-118, (3-(2-chloro-6-fluorophenyl)-5-(1-(3-fluorophenyl)-5-(trifluoromethyl)-1H-pyrazol-4-yl)isoxazol-4-yl)(isoxazolidin-2-yl)methanone]	7.00 to 8.00	7.00 to 8.00			7.00 to 8.00	
CNC(=O)c1c(-c2ccccc2Cl)noc1-c1cnn(-c2cccc(Cl)c2)c1C(F)(F)F [IB-63, 3-(2-chlorophenyl)-5-(1-(3-chlorophenyl)-5-(trifluoromethyl)-1H-pyrazol-4-yl)-N-methylisoxazole-4-carboxamide]	6.00 to 7.00	6.00 to 7.00			6.00 to 7.00	
Cc1nnc(-c2c(-c3c(F)cccc3Cl)noc2-c2cnn(-c3cccnc3)c2C(F)(F)F)o1 [Example B-10, 2-(3-(2-chloro-6-fluorophenyl)-5-(1-(pyridin-3-yl)-5-(trifluoromethyl)-1H-pyrazol-4-yl)isoxazol-4-yl)-5-methyl-1,3,4-oxadiazole]			7.00 to 8.00	6.00 to 7.00		6.00 to 7.00
CCOC(=O)c1c(-c2ccncc2F)noc1-c1cnn(-c2cccnc2)c1C(F)(F)F [IB-17, ethyl 3-(3-fluoropyridin-4-yl)-5-(1-(pyridin-3-yl)-5-(trifluoromethyl)-1H-pyrazol-4-yl)isoxazole-4-carboxylate]	5.00 to 6.00	6.00 to 7.00			5.00 to 6.00	
Fc1cccc(Cl)c1-c1noc(-c2cnn(-c3ccccc3)c2C(F)(F)F)c1Br [Example I-145, 4-bromo-3-(2-chloro-6-fluorophenyl)-5-(1-phenyl-5-(trifluoromethyl)-1H-pyrazol-4-yl)isoxazole]	> 8.00	7.00 to 8.00			7.00 to 8.00	
CCOC(=O)c1c(-c2c(Cl)cccc2Cl)noc1-c1cnn(-c2cccc(Cl)c2)c1C(F)(F)F [IB-45, ethyl 5-(1-(3-chlorophenyl)-5-(trifluoromethyl)-1H-pyrazol-4-yl)-3-(2,6-dichlorophenyl)-isoxazole-4-carboxylate]	> 8.00	> 8.00			> 8.00	
COC(=O)c1c(-c2c(Cl)cccc2Cl)noc1-c1cnn(-c2cccc(Cl)c2)c1C(F)(F)F [IB-75, methyl 5-(1-(3-chlorophenyl)-5-(trifluoromethyl)-1H-pyrazol-4-yl)-3-(2,6-dichlorophenyl)isoxazole-4-carboxylate]	> 8.00	> 8.00			> 8.00	
COC(=O)c1c(-c2c(F)cccc2Cl)noc1-c1cnn(-c2cccnc2)c1C(F)(F)F [IB-67, methyl 3-(2-chloro-6-fluorophenyl)-5-(1-(pyridin-3-yl)-5-(trifluoromethyl)-1H-pyrazol-4-yl)isoxazole-4-carboxylate]	7.00 to 8.00	7.00 to 8.00			7.00 to 8.00	
CCOC(=O)c1c(-c2c(F)cccc2Cl)noc1-c1cnn(-c2cccc(C(N)=O)c2)c1C(F)(F)F [IB-100, ethyl 5-(1-(3-carbamoylphenyl)-5-(trifluoromethyl)-1H-pyrazol-4-yl)-3-(2-chloro-6-fluorophenyl)isoxazole-4-carboxylate]	5.00 to 6.00	5.00 to 6.00			5.00 to 6.00	
CCOC(=O)c1c(-c2c(Cl)cncc2Cl)noc1-c1cnn(-c2ccncc2)c1C(F)(F)F [IB-10, ethyl 3-(3,5-dichloropyridin-4-yl)-5-(1-(pyridin-4-yl)-5-(trifluoromethyl)-1H-pyrazol-4-yl)isoxazole-4-carboxylate]	6.00 to 7.00	6.00 to 7.00			6.00 to 7.00	

The next lines start with results.

pIC50 (IFN-γ; [2])	pIC50 (IL-17FF; [4])	pIC50 (IFN-γ; [5])	pIC50 (IL-17FF; [7])	Structure (SMILES)	pIC50 [1, 3]	pIC50 [1, 6]
7.00 to 8.00	7.00 to 8.00			CCOC(=O)c1c(-c2c(F)cccc2Cl)noc1-c1cnn(-c2cccc([N+](=O)[O-])c2)c1C(F)(F)F [IB-90, ethyl 3-(2-chloro-6-fluorophenyl)-5-(1-(3-nitrophenyl)-5-(trifluoromethyl)-1H-pyrazol-4-yl)isoxazole-4-carboxylate]	7.00 to 8.00	
6.00 to 7.00	6.00 to 7.00			CON(C)C(=O)c1c(-c2c(F)cccc2Cl)noc1-c1cnn(-c2ccccc2F)c1C(F)(F)F [IB-53, 3-(2-chloro-6-fluorophenyl)-5-(1-(2-fluorophenyl)-5-(trifluoromethyl)-1H-pyrazol-4-yl)-N-methoxy-N-methylisoxazole-4-carboxamide]	6.00 to 7.00	
		6.00 to 7.00	6.00 to 7.00	Cc1nnc(-c2c(-c3c(F)cccc3Cl)noc2-c2cnn(-c3ccccc3Cl)c2C(F)(F)F)s1 [Example B-20, 3-(2-chloro-6-fluorophenyl)-5-(1-(2-chlorophenyl)-5-(trifluoromethyl)-1H-pyrazol-4-yl)-4-(5-methyl-1,3,4-thiadiazol-2-yl)isoxazole]		6.00 to 7.00
		> 8.00	6.00 to 7.00	Fc1cccc(-n2ncc(-c3onc(-c4c(F)cccc4Cl)c3-c3ccsc3)c2C(F)(F)F)c1 [Example 16, 3-(2-chloro-6-fluorophenyl)-5-(1-(3-fluorophenyl)-5-(trifluoromethyl)-1H-pyrazol-4-yl)-4-(thiophen-3-yl)isoxazole]		> 8.00
6.00 to 7.00	6.00 to 7.00			CCOC(=O)c1c(-c2c(F)cccc2Cl)noc1-c1cnn(CCOC)c1C(F)(F)F [IB-2, ethyl 3-(2-chloro-6-fluorophenyl)-5-(l-(2-methoxyethyl)-5-(trifluoromethyl)-1H-pyrazol-4-yl)isoxazole-4-carboxylate]	5.00 to 6.00	
5.00 to 6.00	5.00 to 6.00			CON(C)C(=O)c1c(-c2c(F)cccc2Cl)noc1-c1cnn(-c2cccnc2)c1C(F)(F)F [IB-56, 3-(2-chloro-6-fluorophenyl)-N-methoxy-N-methyl-5-(1-(pyridin-3-yl)-5-(trifluoromethyl)-1H-pyrazol-4-yl)isoxazole-4-carboxamide]	5.00 to 6.00	
> 8.00	7.00 to 8.00			COC(=O)c1c(-c2c(F)cccc2Cl)noc1-c1cnn(-c2ccccc2F)c1C(F)(F)F [Example I-1, methyl 3-(2-chloro-6-fluorophenyl)-5-(1-(2-fluorophenyl)-5-(trifluoromethyl)-1H-pyrazol-4-yl)isoxazole-4-carboxylate]	7.00 to 8.00	
